According to patent EP4782434A1, “N-SULFONYL CARBOXAMIDE COMPOUND, AND PREPARATION METHOD THEREFOR AND USE THEREOF” (Nutshell Therapeutics (Shanghai) Co., Ltd., priority 2023, dated 2025):
pIC50: −log10 of the molar value.

How the values were obtained:
Polθ ATPase = target: T1, Polθ ATPase (Homo sapiens, UniProt O75417); assay: Polθ ATPase activity assay (ADP-Glo Kinase Assay kit); assay type: biochemical; settings: truncated POLQ-N protein (aa 1-894) 1 nM, 50 nM ssDNA, 50 µM ATP
T1 construct: purified truncated POLQ-N protein (aa 1-894, N-terminal 6-His tag); 6-His (N)
T1 sequence (O75417 1-894): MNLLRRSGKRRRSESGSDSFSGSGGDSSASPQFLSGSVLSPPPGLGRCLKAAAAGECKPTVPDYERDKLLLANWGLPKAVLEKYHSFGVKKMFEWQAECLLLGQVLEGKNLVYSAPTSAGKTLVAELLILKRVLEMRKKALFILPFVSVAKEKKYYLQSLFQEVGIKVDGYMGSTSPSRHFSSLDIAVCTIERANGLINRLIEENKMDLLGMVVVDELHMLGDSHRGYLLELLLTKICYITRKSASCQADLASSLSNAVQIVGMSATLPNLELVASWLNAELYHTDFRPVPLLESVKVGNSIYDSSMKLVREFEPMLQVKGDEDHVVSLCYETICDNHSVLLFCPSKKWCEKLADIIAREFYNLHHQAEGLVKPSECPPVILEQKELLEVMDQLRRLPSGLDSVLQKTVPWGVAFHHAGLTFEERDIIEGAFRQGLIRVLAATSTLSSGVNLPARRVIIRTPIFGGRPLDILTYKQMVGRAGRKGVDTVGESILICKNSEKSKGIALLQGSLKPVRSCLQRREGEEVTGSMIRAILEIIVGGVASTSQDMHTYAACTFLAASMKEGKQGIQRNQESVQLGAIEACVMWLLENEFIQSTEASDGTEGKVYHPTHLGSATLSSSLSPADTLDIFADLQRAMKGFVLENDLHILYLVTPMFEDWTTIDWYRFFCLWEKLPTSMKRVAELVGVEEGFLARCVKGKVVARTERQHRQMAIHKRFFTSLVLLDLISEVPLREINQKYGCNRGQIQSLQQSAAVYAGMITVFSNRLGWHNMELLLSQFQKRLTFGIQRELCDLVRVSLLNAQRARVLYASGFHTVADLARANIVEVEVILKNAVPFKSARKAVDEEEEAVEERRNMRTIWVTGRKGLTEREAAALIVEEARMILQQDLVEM
Description: The inhibitory efficiency of the compounds of formula (I) against Polθ ATPase activity was determined using the ADP-Glo Kinase Assay kit (Promega, V9101). […] The starting (final) concentration was 100 nM, followed by a 3-fold serial dilution for a total of 10 concentration points in duplicate (n=2). 5 μL of purified […], N-terminal 6-His tag) was added to each well. After centrifugation at 1000 rpm for 1 minute, the plate was incubated at 25°C for 10 minutes. 5 μL of substrate reaction solution (containing ATP & ssDNA) was added to each well, and the reaction was carried out at 25°C for 60 minutes. 5 μL of ADP-Glo Reagent was added to each well. After centrifugation at 1000 rpm for 1 minute, the plate was incubated at 25°C for 40 minutes. 10 μL of detection solution was added to each well. After centrifugation at 1000 rpm for 1 minute, the plate was incubated at 25°C for 40 minutes. Luminescence signals were recorded using a microplate reader (BMG, PHERAstar FSX). The final reaction system contained 1 nM of POLQ-N enzyme; 50 nM of ssDNA ([NT]); 50 μM of ATP; and 1% DMSO. The inhibition percentage (%) of the compound at each concentration was calculated using the RFU values normalized against the control wells within each assay plate. Table 1: Inhibitory activity of compounds against Polθ ATPase

[1] = tested on: Theta-mediated end joining (TMEJ) process in HEK293T cells; assay: TMEJ reporter assay (NanoGlo luciferase); assay type: cell-based; settings: Homo sapiens, HEK-293T, HEK293T cells electroporated with TMEJ substrate, 24 hours
Description: The inhibitory effect of the compounds on the Theta-mediated end joining (TMEJ) process was evaluated.
(1) HEK293T cells were cultured in DMEM supplemented with 10% heat-inactivated fetal bovine serum (FBS) and 1% penicillin-streptomycin (PS). (2) Prior to startup, the Neon transfection system was disinfected, and E2 and R buffers were equilibrated to room temperature. (3) Culture medium without antibiotics was pre-warmed. (4) Cells in the flask reaching 80-90% confluency were trypsinized, neutralized with culture medium, centrifuged, and counted. (5) For transfection using a 100 µL electroporation tip, 2 × 10^6 cells were taken, washed once with DPBS (without Mg^2+ and Ca^2+), centrifuged at 1000 rpm for 5 min, and the supernatant was discarded. The number of cells and volume may be increased as required. (6) The Neon system was set up; a Neon tube was inserted into the Neon pipette and E2 buffer was added. (7) 10 µg of TMEJ substrate was added to 100 µL of R solution; the volume may be increased as required. (8) Cells were resuspended in DNA buffer, and electroporation was initiated according to the following parameters:
(9) The cells were loaded into antibiotic-free culture medium and mixed gently. (10) Steps (8)-(9) were repeated as necessary, and cells were seeded into 384-well plates at a density of 40,000 cells/well in 40 µL of culture medium. (11) The plates were incubated in a humidified CO2 incubator at 37°C for 24 hours. (12) NanoGlo reagent was warmed to room temperature, and NanoGlo buffer was mixed with the substrate at a ratio of 50:1. (13) The cell culture plates were equilibrated at room temperature for 10 minutes. (14) 40 µL of NanoGlo substrate buffer was added to each well, followed by shaking at 300 rpm for 3 minutes protected from light. (15) Signals were read via a BMG PHERAstar FSX.

DLD-1 BRCA2-/- cells = assay: DLD-1 BRCA2-/- cell proliferation assay (CellTiter-Glo, 10 days incubation); assay type: cell-based; settings: Homo sapiens, 240 h, DLD-1 BRCA2-/- cell line, total incubation period of 10 days, read-out: DLD1 BRCA2^-/- IC50
Text: The anti-proliferative effect of the compounds on the human colorectal adenocarcinoma cell line DLD-1 BRCA2^-/- method.
• DLD-1 (purchased from ATCC, Cat. No.: CCL-221, Batch No.: 70033255); • RPMI1640 (purchased from Invitrogen, Cat. No.: 11875-085); • 0.25% Trypsin-EDTA (purchased from Invitrogen, Cat. No.: 25200-072); • Penicillin-Streptomycin solution (purchased from Hyclone, Cat. No.: SV30010); • FBS (purchased from BI, Cat. No.: 04-002-1A); • DMSO (purchased from Sigma, Cat. No.: D4540-1L); • 96-well plate (purchased from Corning, Cat. No.: CLS3903); • CellTiter-Glo reagent (purchased from Promega, Cat. No.: G7558).
The anti-proliferative effect of the compounds on a human colorectal adenocarcinoma cell line was evaluated using an ATP quantification method, wherein the measured activity correlates well with the number of viable cells. The genetically edited cell line DLD-1 BRCA2^-/- was cultured in RPMI 1640 medium (Invitrogen, 11875-085) supplemented with 10% (v/v) fetal bovine serum (BI, 04-002-1A). The cell line was cultured according to the standard instructions of the American Type Culture Collection (ATCC) and identified via short tandem repeat (STR) genotyping.
In the proliferation assay, cells were harvested and resuspended in cell culture medium. Cell density was determined using a cell counter. An appropriate volume of cell suspension was aspirated from the centrifuge tube to prepare a plating working solution (150 cells/100 µL for the DLD-1 BRCA2^-/- cell line). 100 µL of the cell suspension was seeded into each well of a 96-well plate (Corning, 3603) and incubated overnight in an incubator. The diluted test compound solutions were added to the wells. On the fourth and seventh days of compound incubation, the medium was replaced with fresh culture medium, and the compounds were re-administered, for a total incubation period of 10 days. Following incubation, the cell culture plates were removed and equilibrated to room temperature. 100 µL of CellTiter-Glo (Promega, G7558) was added to each well, and the plate was incubated at room temperature for 30 minutes. Data were read using a microplate reader (PerkinElmer, Enspire) in 96-well luminescence mode. Data analysis, curve fitting, and reporting were performed using the dose-response one-site 205 model of IDBS XL fit. Table 2: Proliferation inhibitory activity of compounds against DLD-1 BRCA2-/- cells

SMILES | pIC50 (Polθ ATPase; class symbols) | pIC50 (Polθ ATPase; specific values) | pIC50 [1] | pIC50 (DLD-1 BRCA2-/- cells)
COc1cnc(C(F)F)cc1-c1cc(C)ccc1C(=O)NS(=O)(=O)Cc1ccc([C@@H](C)OC)cc1 [cpd-8, (R)-2-(2-(Difluoromethyl)-5-methoxypyridin-4-yl)-N-((4-(1-methoxyethyl)benzyl)sulfonyl)-4-methylbenzamide] | ≥ 8.70 | 9.14 | 8.70 | 7.24
[2H]C([2H])([2H])O[C@@H](C)c1ccc(CS(=O)(=O)NC(=O)c2ccc(C)cc2-c2cc(C(F)F)ncc2OC)cc1 [cpd-19, (S)-2-(2-(Difluoromethyl)-5-methoxypyridin-4-yl)-N-((4-(1-(methoxy-d3)ethyl)benzyl)sulfonyl)-4-methylbenzamide] | ≥ 8.70 | 9.35 | 8.70 | 7.68
COc1ccc(C(F)F)cc1-c1cc(C)ncc1C(=O)NS(=O)(=O)Cc1ccc([C@@H](C)OC)cc1 [cpd-9, (R)-4-(5-(Difluoromethyl)-2-methoxyphenyl)-N-((4-(1-methoxyethyl)benzyl)sulfonyl)-6-methylnicotinamide] | ≥ 8.70 | 9.28 |  | 7.20
COc1ccc(C(F)F)cc1-c1cc(C)ccc1C(=O)NS(=O)(=O)Cc1ccc(C(C)OC)nc1 (centres unmarked) [cpd-20, 5'-(Difluoromethyl)-2'-methoxy-N-(((6-(1-methoxyethyl)pyridin-3-yl)methyl)sulfonyl)-5-methyl-[1,1'-biphenyl]-2-carboxamide] | ≥ 8.70 | 8.85 |  | 
COc1cnc(C(F)F)cc1-c1cc(C)ncc1C(=O)NS(=O)(=O)Cc1ccc([C@@H](C)OC)cc1 [cpd-10, (R)-2'-(Difluoromethyl)-5'-methoxy-N-((4-(1-methoxyethyl)benzyl)sulfonyl)-6-methyl-[4,4'-bipyridine]-3-carboxamide] | ≥ 8.70 | 8.96 |  | 6.29
[2H]C([2H])([2H])O[C@@H](C)c1ccc(CS(=O)(=O)NC(=O)c2ccc(C([2H])([2H])[2H])cc2-c2nc(C(F)F)c(F)cc2OC)cc1 [cpd-23, (S)-2-(6-(Difluoromethyl)-5-fluoro-3-methoxypyridin-2-yl)-N-((4-(1-(methoxy-d3)ethyl)benzyl)sulfonyl)-4-(methyl-d3)benzamide] |  |  |  | 7.66
COc1ccc(C(F)F)cc1-c1cc(CC(=O)N(C)C2CC2)ccc1C(=O)NS(=O)(=O)Cc1ccc(C(C)C)cc1 [cpd-12, 5-(2-(Cyclopropyl(methyl)amino)-2-oxoethyl)-5'-(difluoromethyl)-N-((4-isopropylbenzyl)sulfonyl)-2'-methoxy-[1,1'-biphenyl]-2-carboxamide] | ≥ 8.70 | 9.00 |  | 7.15
COc1ccc(C(F)F)cc1-c1cc(C)ncc1C(=O)NS(=O)(=O)Cc1ccc([C@H](C)OC)cc1 [cpd-5, (S)-4-(5-(Difluoromethyl)-2-methoxyphenyl)-N-((4-(1-methoxyethyl)benzyl)sulfonyl)-6-methylnicotinamide] | ≥ 8.70 | 9.30 | 9.00 | 7.57
COc1cnc(C(F)F)cc1-c1cc(C)ncc1C(=O)NS(=O)(=O)Cc1ccc([C@H](C)OC)cc1 [cpd-6, (S)-2'-(Difluoromethyl)-5'-methoxy-N-((4-(1-methoxyethyl)benzyl)sulfonyl)-6-methyl-[4,4'-bipyridine]-3-carboxamide] | ≥ 8.70 | 9.22 |  | 6.72
COc1ccc(C(F)F)cc1-c1cc(C)ccc1C(=O)NS(=O)(=O)Cc1ccc(C(OC)C(F)(F)F)cc1 (centres unmarked) [cpd-14, 5'-(Difluoromethyl)-2'-methoxy-5-methyl-N-((4-(2,2,2-trifluoro-1-methoxyethyl)benzyl)sulfonyl)-[1,1'-biphenyl]-2-carboxamide] | ≥ 8.70 | 8.80 |  | 6.97
COc1ccc(C(F)F)cc1-c1cc(C)ccc1C(=O)NS(=O)(=O)Cc1ccc([C@H](C)OC)cc1 [cpd-3, (S)-5'-(difluoromethyl)-2'-methoxy-N-((4-(1-methoxyethyl)benzyl)sulfonyl)-5-methyl-[1,1'-biphenyl]-2-carboxamide] | ≥ 8.70 | 9.15 |  | 7.62
COc1ccc(C(F)F)cc1-c1cc(C)ccc1C(=O)NS(=O)(=O)Cc1ccc([C@@H](C)OC)cc1 [cpd-7, (R)-5'-(Difluoromethyl)-2'-methoxy-N-((4-(1-methoxyethyl)benzyl)sulfonyl)-5-methyl-[1,1'-biphenyl]-2-carboxamide] | ≥ 8.70 | 9.15 |  | 7.23
COc1ccc(C(F)F)cc1-c1cc(C)ccc1C(=O)NS(=O)(=O)Cc1ccc(COC(F)F)cc1 [cpd-15, N-((4-((Difluoromethoxy)methyl)benzyl)sulfonyl)-5'-(difluoromethyl)-2'-methoxy-5-methyl-[1,1'-biphenyl]-2-carboxamide] |  |  |  | 6.81
[2H]C([2H])([2H])O[C@@H](C)c1ccc(CS(=O)(=O)NC(=O)c2ccc(C([2H])([2H])[2H])cc2-c2cc(C(F)F)c(F)nc2OC)cc1 [cpd-24, (S)-2-(5-(Difluoromethyl)-6-fluoro-2-methoxypyridin-3-yl)-N-((4-(1-(methoxy-d3)ethyl)benzyl)sulfonyl)-4-(methyl-d3)benzamide] |  |  |  | 7.48
COc1ccc(C(F)F)cc1-c1cc(Cc2nnc(C)o2)ccc1C(=O)NS(=O)(=O)Cc1ccc(C(C)C)cc1 [cpd-13, 5'-(Difluoromethyl)-N-((4-isopropylbenzyl)sulfonyl)-2'-methoxy-5-((5-methyl-1,3,4-oxadiazol-2-yl)methyl)-[1,1'-biphenyl]-2-carboxamide] | ≥ 8.70 | 9.06 |  | 6.69
